The supplement of paper PMC10307832

Tests used:
Test in all cases: relative viability (nuclei count vs DMSO), 5 days (fraction); higher = more cells survive
AZD5582 + Linsitinib = compound: C[C@@H](C(=O)N[C@@H](C1CCCCC1)C(=O)N2CCC[C@H]2C(=O)N[C@@H]3[C@@H](CC4=CC=CC=C34)OCC#CC#CCO[C@@H]5CC6=CC=CC=C6[C@@H]5NC(=O)[C@@H]7CCCN7C(=O)[C@H](C8CCCCC8)NC(=O)[C@H](C)NC)NC [AZD5582] + C[C@]1(O)C[C@@H](c2nc(-c3ccc4ccc(-c5ccccc5)nc4c3)c3c(N)nccn32)C1 [Linsitinib] (partner 1 µM)
In short: (§1)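 Relative viability equals treated-well nuclei counts divided by vehicle-well nuclei counts. Counts came from 4× images of lung cancer cell lines grown in 1536-well plates for 5 days after pin-tool dosing on the day after seeding. Dosing used one drug alone or a fixed anchor-drug dose plus five library-drug doses (not always all listed) in √10 steps, and values are medians of duplicate plates.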

[1] = compound: Cn1nnc2c(C(N)=O)ncn2c1=O [Temozolomide] + CC(=O)c1c(C)c2cnc(Nc3ccc(N4CCNCC4)cn3)nc2n(C2CCCC2)c1=O [Palbociclib] (partner 0.5 µM)
In short: as §1

AZD5582 + Bortezomib = compound: C[C@@H](C(=O)N[C@@H](C1CCCCC1)C(=O)N2CCC[C@H]2C(=O)N[C@@H]3[C@@H](CC4=CC=CC=C34)OCC#CC#CCO[C@@H]5CC6=CC=CC=C6[C@@H]5NC(=O)[C@@H]7CCCN7C(=O)[C@H](C8CCCCC8)NC(=O)[C@H](C)NC)NC [AZD5582] + CC(C)C[C@H](NC(=O)[C@H](Cc1ccccc1)NC(=O)c1cnccn1)B(O)O [Bortezomib] (partner 0.002 µM)
In short: as §1

Temozolomide + Dasatinib = compound: Cn1nnc2c(C(N)=O)ncn2c1=O [Temozolomide] + Cc1nc(Nc2ncc(C(=O)Nc3c(C)cccc3Cl)s2)cc(N2CCN(CCO)CC2)n1 [Dasatinib] (partner 0.075 µM)
In short: as §1

| Cell Line | relative viability (AZD5582 + Linsitinib; first compound 0.001581 µM) | relative viability (AZD5582 + Linsitinib; first compound 0.005 µM) | relative viability (AZD5582 + Linsitinib; first compound 0.01581 µM) | relative viability (AZD5582 + Linsitinib; first compound 0.05 µM) | relative viability ([1]; first compound 0.2 µM) | relative viability ([1]; first compound 0.6325 µM) | relative viability ([1]; first compound 2 µM) | relative viability ([1]; first compound 6.325 µM) | relative viability ([1]; first compound 20 µM) | relative viability (AZD5582 + Bortezomib; first compound 0.001581 µM) | relative viability (AZD5582 + Bortezomib; first compound 0.005 µM) | relative viability (AZD5582 + Bortezomib; first compound 0.01581 µM) | relative viability (AZD5582 + Bortezomib; first compound 0.05 µM) | relative viability (Temozolomide + Dasatinib; first compound 0.2 µM) | relative viability (Temozolomide + Dasatinib; first compound 0.6325 µM) | relative viability (Temozolomide + Dasatinib; first compound 2 µM) | relative viability (Temozolomide + Dasatinib; first compound 6.325 µM) | relative viability (Temozolomide + Dasatinib; first compound 20 µM) |
| --- | --- | --- | --- | --- | --- | --- | --- | --- | --- | --- | --- | --- | --- | --- | --- | --- | --- | --- |
| NCI-H650 | 0.649 | 0.758 | 0.431 | 0.564 | 0.373 | 0.328 | 0.319 | 0.329 | 0.314 | 0.757 | 0.654 | 0.57 | 0.582 | 0.504 | 0.46 | 0.532 | 0.395 | 0.43 |
| NCI-H661 | 0.469 | 0.552 | 0.58 | 0.682 | 0.344 | 0.393 | 0.437 | 0.411 | 0.402 | 0.752 | 0.927 | 0.702 | 0.921 | 0.781 | 0.953 | 0.962 | 0.762 | 0.706 |
| NCI-H727 | 0.309 | 0.253 | 0.465 | 0.258 |  | 0.579 | 0.676 | 0.715 | 0.703 | 0.761 | 0.932 | 0.851 | 1.04 | 0.332 | 0.406 | 0.334 | 0.273 | 0.299 |
| NCI-H838 | 0.973 | 0.968 | 0.842 | 1 | 0.23 | 0.237 | 0.226 | 0.25 | 0.252 | 0.809 | 1.21 | 0.382 | 0.486 | 0.28 | 0.253 | 0.426 | 0.311 | 0.281 |
| NCI-H1355 | 0.774 | 0.829 | 0.788 | 0.96 | 0.35 | 0.4 | 0.413 | 0.404 | 0.361 | 1.02 | 1.14 | 1.11 | 1.11 | 0.713 | 0.732 | 0.828 | 0.699 | 0.818 |
| NCI-H1437 | 0.862 | 0.95 | 0.976 | 1.01 | 0.292 | 0.336 | 0.31 | 0.329 | 0.325 | 0.389 | 0.549 | 0.445 | 0.446 | 0.388 | 0.438 | 0.45 | 0.4 | 0.393 |
| NCI-H1651 | 0.894 | 1.06 | 1.01 | 1.21 | 0.497 | 0.557 | 0.5 | 0.526 | 0.547 | 0.831 | 0.907 | 0.87 | 0.987 | 0.418 | 0.464 | 0.377 | 0.356 | 0.529 |
| NCI-H1666 | 0.779 | 0.713 | 0.848 | 0.861 | 0.693 | 0.672 | 0.642 | 0.756 | 0.667 | 0.717 | 0.805 | 0.714 | 0.73 | 0.859 | 0.821 | 0.728 | 0.571 | 0.56 |
| NCI-H1734 | 0.953 | 0.869 | 0.895 | 1.1 | 0.359 | 0.398 | 0.349 | 0.355 | 0.353 | 0.959 | 0.963 | 0.966 | 1.14 | 0.482 | 0.471 | 0.396 | 0.482 | 0.464 |
